Data set [1] deals with KB (nasopharynx cancer). The data set can be described thus: Sulphorhodamine B cytotoxicity test, KB line. The data set is classed as cell-based. To be noted: for Cytotoxic activity, IC50, KB (nasopharynx cancer) / IC50: 72 hours incubation, sulphorhodamine B. The protocol:
Cytotoxic activity tests were performed using the following cancer cell lines: MCF-7 (breast cancer), HeLa (cervical cancer) A549 (pulmonary cancer) and KB (nasopharynx cancer) obtained from ECACC (European Collection of Cell Cultures).
Cytotoxicity tests were carried out using a standard procedure with sulphorhodamine B. They involved incubation of the cancer cell lines in the logarithmic growth phase for 72 hours with the compound tested and, subsequently, spectrophotometric determination of the degree of cell growth inhibition using adsorption of a dye (sulphorhodamine B) which binds cellular proteins. The determination was carried out according to a procedure reported in: Vichai, V., Kirtikara, K. Nature Protocols, 2006, 1, 1112.
Preparation of Cells for the Experiment:
Cancerous cells of the cell line tested in the logarithmic growth phase were seeded onto 24-well plates in a quantity of 20,000 cells/2 mL of the growth medium per well and, subsequently, incubated in an incubator at 37° C., in the 5% CO2 atmosphere for 24 hours.
Preparation of Test Compound Solutions:
Solutions of the test compounds were prepared in DMSO in the following concentration range: 0.05; 0.1; 0.5; 1; 5; 10; 50; 100 μM.
The cells of the lines tested were treated with the solutions of the test compounds in a laminar-flow chamber which ensured sterile working conditions according to the following procedure: the first three wells were used as a control: they contained 20 μL of DMSO only; successive solutions of the test compound were added to subsequent wells (20 μL), starting with the lowest concentration (three wells for each concentration level). Subsequently, the plates were placed in an incubator for 72 hours.
After the end of incubation, the adhered cells were fixed by adding 500 μL of cold (4° C.) 50% trichloroacetic acid (TCA) and incubated at 4° C. for 1 hour. Subsequently, each well was rinsed with sterile water and dried. The operation was repeated five times. The fixed cells were stained for 30 minutes by adding 500 μL of 0.4% of a dye solution (sulphorhodamine B) dissolved in 1% acetic acid. Any unbound dye was removed by decanting it from the plate, and the cells were washed 4 times with 1% acetic acid. Subsequently, the plates were dried in air for approx. 5 minutes. Any […] dye was dissolved by adding 1500 μL of […] Tris-base buffer (trishydroxymethylaminomethane) to each well and shaken using an orbital shaker for 5 minutes. Subsequently, 200 μL of solution from each well was transferred to each of two wells on a new 96-well plate and absorption of the solutions was determined spectrophotometrically at a wavelength of 490-530 nm using a plate reader.
Depending on the type of the cell line, the following growth media were used: • the MCF-7 line was grown in Dulbecco's Modified Eagle's Medium (DME) from Sigma (cat. no. D5796), • the HeLa, A549 and KB lines were grown in RPMI-1640 Medium from Sigma (cat. no. R8758).
IC50 values, denoting concentration of a compound needed to obtain 50% inhibition of cell growth, were determined for all the derivatives tested.

The test system of data set [2] is HeLa (cervical cancer). The data set can be described thus: Sulphorhodamine B cytotoxicity test, HeLa line. To be noted: for Cytotoxic activity class, HeLa (cervical cancer) / Cytotoxic activity, IC50, HeLa (cervical cancer) / IC50: 72 hours incubation, sulphorhodamine B. The data set is classed as cell-based. How it is done:
(§1) Cytotoxic activity tests were performed using the following cancer cell lines: MCF-7 (breast cancer), HeLa (cervical cancer) A549 (pulmonary cancer) and KB (nasopharynx cancer) obtained from ECACC (European Collection of Cell Cultures). Cytotoxicity tests were carried out using a standard procedure with sulphorhodamine B. They involved incubation of the cancer cell lines in the logarithmic growth phase for 72 hours with the compound tested and, subsequently, spectrophotometric determination of the degree of cell growth inhibition using adsorption of a dye (sulphorhodamine B) which binds cellular proteins. The determination was carried out according to a procedure reported in: Vichai, V., Kirtikara, K. […] Solutions of the test compounds were prepared in DMSO in the following concentration range: 0.05; 0.1; 0.5; 1; 5; 10; 50; 100 μM. The cells of the lines tested were treated with the solutions of the test compounds in a laminar-flow chamber which ensured sterile working conditions according to the following procedure: the first three wells were used as a control: they contained 20 μL of DMSO only; successive solutions of the test compound were added to subsequent wells (20 μL), starting with the lowest concentration (three wells for each concentration level). Subsequently, the plates were placed in an incubator for 72 hours. After the end of incubation, the adhered cells were fixed by adding 500 μL of cold (4° C.) 50% trichloroacetic acid (TCA) and incubated at 4° C. for 1 hour. Subsequently, each well was rinsed with sterile water and dried. The operation was repeated five times. The fixed cells were stained for 30 minutes by adding 500 μL of 0.4% of a dye solution (sulphorhodamine B) dissolved in 1% acetic acid. […] Subsequently, the plates were dried in air for approx. 5 minutes. Any […] dye was dissolved by adding 1500 μL of […] Tris-base buffer (trishydroxymethylaminomethane) to each well and shaken using an orbital shaker for 5 minutes. […] Depending on the type of the cell line, the following growth media were used: • the MCF-7 line was grown in Dulbecco's Modified Eagle's Medium (DME) from Sigma (cat. no. […] R8758). […] Program Procedure. Instruction and technical documentation change notice, instruction 14. Screening data summary interpretation and outline of current screening. Edition NCI NIH, Bethesda Rev., 1980, 6, 31-62).

In data set [3] the test system is A549 (lung cancer). The data set is described as follows: Sulphorhodamine B cytotoxicity test, A549 line. It counts as cell-based. To be noted: for Cytotoxic activity class, A549 (lung cancer) / Cytotoxic activity, IC50, A549 (lung cancer) / IC50: 72 hours incubation, sulphorhodamine B. The protocol: as §1
Data set [4] concerns MCF-7 line (breast cancer). The data set is described as follows: Sulphorhodamine B cytotoxicity test, MCF-7 line. The data set is classed as cell-based. To be noted: for Cytotoxic activity class, MCF-7 line (breast cancer) / Cytotoxic activity, IC50, MCF-7 line (breast cancer) / IC50: 72 hours incubation, sulphorhodamine B. The protocol:
as §1

For data set [5], the system named is breast cancer cells (MCF-7). Conditions: in vitro; Martirosyan et al. 2004; read-out: IC50, inhibition of growth and differentiation of breast cancer cells (MCF-7); cited from earlier work.
Where [6] appears, read: average of three determinations.
Setting [7] is: average of three determinations, read-out: Cytotoxic activity, IC50, KB (nasopharynx cancer).
Setting [8] is: read-out: Cytotoxic activity class, KB (nasopharynx cancer).
Setting [9] is: average of three determinations, read-out: Cytotoxic activity, IC50, HeLa (cervical cancer).
[10] abbreviates: average of three determinations, read-out: Cytotoxic activity, IC50, A549 (lung cancer).
The mark [11] stands for this setting: average of three determinations, read-out: Cytotoxic activity, IC50, MCF-7 line (breast cancer).
Setting [12] is: Homo sapiens, HeLa, average of three determinations, read-out: Cytotoxic activity, IC50, HeLa (cervical cancer).
Setting [13] is: Homo sapiens, HeLa, read-out: Cytotoxic activity class, HeLa (cervical cancer).
The mark [14] stands for this setting: Homo sapiens, A549, average of three determinations, read-out: Cytotoxic activity, IC50, A549 (lung cancer).
Setting [15] is: Homo sapiens, A549, read-out: Cytotoxic activity class, A549 (lung cancer).
[16] abbreviates: Homo sapiens, MCF7, average of three determinations, read-out: Cytotoxic activity, IC50, MCF-7 line (breast cancer).
[17] abbreviates: Homo sapiens, MCF7, read-out: Cytotoxic activity class, MCF-7 line (breast cancer).

“And” between values parts separate entries of the source, which are not always exact repeats. Equal values may be shown once. Read-outs that look alike come from different tables or passages of the source. Where only a bound is given, the exact number is not on record here.

9-O-propargylcinchonidine [PCD]: in data set [1] (setting [6]), the “Cytotoxic activity, IC50, KB (nasopharynx cancer)” value stood at 9.5 µg/mL. In addition, the IC50 in data set [1] (setting [7]) is 28.6 µM; in data set [1] (setting [8]), 4 to 30 µg/mL; in data set [2] (setting [9]), 30.1 µM; in data set [3] (setting [10]) it was 48.1 µM; in data set [4] (setting [11]), 28 µM. In data set [2], the “Cytotoxic activity class, HeLa (cervical cancer)” value is given as “(MA) (IC50 range of 4-30 μg/mL are considered medium active (abbreviated as MA))”. Further, the “Cytotoxic activity, IC50, HeLa (cervical cancer)” value in data set [2] (setting [6]) is 10.0 µg/mL. Moreover, the “Cytotoxic activity class, A549 (lung cancer)” value in data set [3] is “(MA) (IC50 range of 4-30 μg/mL are considered medium active (abbreviated as MA))”. In data set [3] (setting [6]), the “Cytotoxic activity, IC50, A549 (lung cancer)” value was 16.0 µg/mL. Also, in data set [4], the “Cytotoxic activity class, MCF-7 line (breast cancer)” value is listed as “(MA) (IC50 range of 4-30 μg/mL are considered medium active (abbreviated as MA))”. In addition, the “Cytotoxic activity, IC50, MCF-7 line (breast cancer)” value in data set [4] (setting [6]) came out at 9.3 µg/mL. Moreover, the “reduction in cytotoxic activity on change to the opposite configuration (8S,9R)” value in data set [4] (PCD versus PCN, general statement, not tied to one cell line) is listed as “about 3 fold”.
Regarding `O=c1[nH]c(=O)n([C@H]2C[C@H](O)[C@@H](CO)O2)cc1F` [5-fluoro-2′-deoxyuridine, reference compound], the IC50 in data set [1] (setting [7]) was 13.7 µg/mL and 55.6 µM; in data set [1] (setting [8]) it was 4 to 30 µg/mL; in data set [2] (setting [12]) it was 13 µg/mL and 52.8 µM; in data set [2] (setting [13]) it was 4 to 30 µg/mL; in data set [3] (setting [14]), 13.4 µg/mL and 54.4 µM; in data set [3] (setting [15]), 4 to 30 µg/mL. Further, the IC50 in data set [4] (setting [16]) was 11.4 µg/mL and 46.3 µM; in data set [4] (setting [17]), 4 to 30 µg/mL.
With `O=c1[nH]cc(F)c(=O)[nH]1` [5-fluorouracil, reference compound], the IC50 is 22 µg/mL and 169 µM in data set [1] (setting [7]); 4 to 30 µg/mL in data set [1] (setting [8]); 21 µg/mL and 161 µM in data set [2] (setting [12]); 4 to 30 µg/mL in data set [2] (setting [13]); 21.4 µg/mL and 165 µM in data set [3] (setting [14]); 4 to 30 µg/mL in data set [3] (setting [15]). Also, the IC50 in data set [4] (setting [16]) was 18.2 µg/mL and 140 µM; in data set [4] (setting [17]), 4 to 30 µg/mL.
On to `C#CCO[C@@H](c1ccnc2ccccc12)[C@H]1C[C@@H]2CCN1C[C@@H]2C=C` [PCN, 9-O-propargylcinchonine], for which the “Cytotoxic activity, IC50, KB (nasopharynx cancer)” value in data set [1] (setting [6]) was 3.2 µg/mL. The IC50 was 9.63 µM in data set [1] (setting [7]); under 4 µg/mL in data set [1] (setting [8]); 10.5 µM in data set [2] (setting [9]); 11.7 µM in data set [3] (setting [10]); 9.02 µM in data set [4] (setting [11]). Also, the “times as high activity compared to 5FU” value in data set [1] (KB line, ratio of IC50 to 5FU) stood at 6.8 times. Besides, the “times as high activity compared to 5FdU” value in data set [1] (KB line, ratio of IC50 to 5FdU) is reported as 4.3 times. For the same compound, in data set [2], the “Cytotoxic activity class, HeLa (cervical cancer)” value is “(A) (IC50<4 μg/mL are generally assumed as active (abbreviated as A))”. Further, the “Cytotoxic activity, IC50, HeLa (cervical cancer)” value in data set [2] (setting [6]) came out at 3.5 µg/mL. Also, the “times as cytotoxic as 5FU” value in data set [2] (HeLa line, ratio of IC50 to 5FU) is on record as “six times”; in data set [3] (A549 line, ratio of IC50 to 5FU) it was “more than five times”; in data set [4] (MCF-7 line, ratio of IC50 to 5FU), “more than six times”. The “times as cytotoxic as 5FdU” value in data set [2] (HeLa line, ratio of IC50 to 5FdU) was 3.7 times; in data set [3] (A549 line, ratio of IC50 to 5FdU), “more than three times”. In data set [3], the “Cytotoxic activity class, A549 (lung cancer)” value is reported as “(A) (IC50<4 μg/mL are generally assumed as active (abbreviated as A))”. In addition, the “Cytotoxic activity, IC50, A549 (lung cancer)” value in data set [3] (setting [6]) was 3.9 µg/mL. In addition, the “Cytotoxic activity class, MCF-7 line (breast cancer)” value in data set [4] is given as “(A) (IC50<4 μg/mL are generally assumed as active (abbreviated as A))”. In data set [4] (setting [6]), the “Cytotoxic activity, IC50, MCF-7 line (breast cancer)” value is 3.0 µg/mL. The “times as active as 5FdU” value in data set [4] (MCF-7 line, ratio of IC50 to 5FdU) turned out to be 3.8 times.
Consider `C=C[C@H]1C[N@@]2CC[C@H]1C[C@@H]2[C@@H](O)c1ccnc2ccccc12` [cinchonine, reference compound], for which the IC50 in data set [1] (setting [7]), in data set [2] (setting [12]), in data set [3] (setting [14]) and in data set [4] (setting [16]) was over 50 µg/mL in each case.
For the compound `C=C[C@H]1C[N@@]2CC[C@H]1C[C@H]2[C@H](O)c1ccnc2ccc(OC)cc12` [quinine], the IC50 in data set [5] is 40 µM.

The values above are taken from patent publication US20160022668A1, “APPLICATION OF CINCHONA ALKALOID DERIVATIVES AS CYTOTOXIC COMPOUNDS” (ADAM MICKIEWICZ UNIVERSITY, priority 2014, published 2016).
